Measurements from patent publication US8642510B2, “Inhibitors for brassinosteroid signalling” (GMI-Gregor Mendel-Institut fuer Molekulare Pflanzenbiologie …, priority 2008, dated 2014).
“Also recorded” adds a separate entry of the source.

What was measured:
[1] = system: ASKs (A. thaliana GSK-3/Shaggy-like kinases); assay: In vitro kinase assay, GST-ASK fusion proteins with MBP and γ-[32P]-ATP; format: biochemical, Arabidopsis thaliana; conditions: compounds at 10 μM; result in words
Experimental: GST-ASK fusion proteins were incubated with MBP as substrate and γ-[32P]-ATP as co-substrate in the absence (−) or presence of different derivatives (the numbers correspond to Table 1). […] The compounds were used at a concentration of 10 μM. The proteins were separated by SDS-PAGE and the incorporated radioactive phosphate detected with a storage phosphor imager screen.
ASKs were expressed as GST-fusion proteins in E. coli BL21. In vitro kinase assays were performed by incubating 50 ng GST-fusion protein, 10 μg myelin basic protein (MBP; Sigma, St Louis, Mo.) as substrate and 0.15 MBq γ-[32P]-ATP as co-substrate at 25° C. for 30 min. The reaction buffer consisted of 20 mM HEPES pH7.4, 15 mM MgCl2, 5 mM EGTA and 1 mM DTT. For initial experiments cold ATP was included at concentrations up to 3 μM. The reaction products were separated by SDS-PAGE and the amount of radioactivity incorporated into MBP quantified using an Amersham storage phosphor imager screen and a Biorad Molecular Imager FX. In vivo kinase activity was detected by phosphorylation band-shift assays using BZR1-CFP as substrate.
Representatives of all groups were expressed as recombinant GST fusion proteins in E. coli.

[2] = Cell-permeability assay (uptake by seedlings); format: in vivo, A. thaliana; conditions: 50 μM in medium
Experimental: FIG. 6: Methylation increases tissue-permeability. A. thaliana seedlings were incubated in 50 μM solutions of compounds 10 and 15 in ½MS medium. Samples were taken after the indicated time and the in situ levels of compound 15 analysed by HPLC. The solid line represents the results for plants incubated with compound 10 and the dashed line the results for compound 15. The means and standard deviations were calculated from 3 independent assays.
Two-week-old A. thaliana Co10 seedlings were transferred to ½MS medium containing 50 μM inhibitor. Samples were removed after the indicated time points, rinsed with water, dried with filter paper and frozen in liquid nitrogen. For analysis the plant material was ground to a fine powder in a mortar pre-cooled with liquid nitrogen. […]
The cell-permeability of a substance is an important characteristic influencing its in vivo potency. The uptake of compounds 10 and 15 by plants was determined by treatment of seedlings with solutions of these compounds and subsequent quantification of the internalised inhibitor concentrations (FIG. 6). Since compound 10 is rapidly converted to 15, only the in situ concentration of 15 was measured. […] While 50 μM were present in the medium, in situ concentrations of about 90 μM could be measured in the case of compound 15 and up to 190 μM in the case of application of compound 10.

## COC(=O)CCC(=O)Nc1ccc(I)cn1 [Compound 10, 4-[(5-iodopyrid-2-yl)amino]-4-oxobutanoic acid methyl ester]
[1]
  Inhibition of ASKs in vitro (MBP phosphorylation): dramatically reduced inhibitory effects; also recorded: little potency in vitro; also recorded: little or no activity
[2]
  Uptake rate relative to compound 15: roughly double
[2]; result in words
  Tissue permeability / uptake: higher tissue permeability; also recorded: very rapid uptake
